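Following 48 hours of exposure in 96-well plates, responses at five concentrations were used to interpolate endpoints linearly. GI50 is the concentration that inhibits growth by half.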 Active and inactive are the calls of the source. Rule as the data show it: active = GI50 up to about 1.1 µM and inactive = higher.
Columns and labels:
Assay in all cases: NCI anticancer screen, dose series, 48 h
OVCAR-8 = test system: OVCAR-8
SR = test system: SR
COLO 205 = test system: COLO 205
HCC 2998 = test system: HCC 2998
SW-620 = test system: SW-620
CAKI-1 = test system: CAKI-1
786-0 = test system: 786-0
ACHN = test system: ACHN
HT-29 = test system: HT-29
NCI-H460 = test system: NCI-H460
RXF 393 = test system: RXF 393
NCI/ADR-RES = test system: NCI/ADR-RES
OVCAR-5 = test system: OVCAR-5
OVCAR-4 = test system: OVCAR-4
NCI-H23 = test system: NCI-H23
NCI-H522 = test system: NCI-H522
MCF7 = test system: MCF7
M14 = test system: M14
KM12 = test system: KM12
T47D = test system: T47D
MOLT-4 = test system: MOLT-4
Malme-3M = test system: Malme-3M
HOP-62 = test system: HOP-62
SK-MEL-28 = test system: SK-MEL-28
SK-MEL-2 = test system: SK-MEL-2
A498 = test system: A498
RPMI-8226 = test system: RPMI-8226
MDA-MB-435 = test system: MDA-MB-435
UO-31 = test system: UO-31
K562 = test system: K562
HCT-116 = test system: HCT-116
MDA-MB-231 = test system: MDA-MB-231
SF-295 = test system: SF-295
A549 = test system: A549
DU-145 = test system: DU-145
PC-3 = test system: PC-3
U-251 = test system: U-251
SF-539 = test system: SF-539
SN12C = test system: SN12C
UACC-62 = test system: UACC-62
SF-268 = test system: SF-268
TK-10 = test system: TK-10
SK-OV-3 = test system: SK-OV-3
SNB-19 = test system: SNB-19
OVCAR-3 = test system: OVCAR-3
SK-MEL-5 = test system: SK-MEL-5
HCT-15 = test system: HCT-15
MDA-N = test system: MDA-N
SNB-75 = test system: SNB-75
UACC-257 = test system: UACC-257
EKVX = test system: EKVX

CNC(=O)CCNC(=O)CCC(=O)N(C)C
GI50 (OVCAR-8): > 100 µM (inactive) | GI50 (SR): 0.951 µM (active) | GI50 (COLO 205): > 100 µM (inactive) | GI50 (HCC 2998): > 100 µM (inactive) | GI50 (SW-620): > 100 µM (inactive) | GI50 (CAKI-1): > 100 µM (inactive) | GI50 (786-0): > 100 µM (inactive) | GI50 (ACHN): > 100 µM (inactive) | GI50 (HT-29): > 100 µM (inactive) | GI50 (NCI-H460): > 100 µM (inactive) | GI50 (RXF 393): > 100 µM (inactive) | GI50 (NCI/ADR-RES): > 100 µM (inactive) | GI50 (OVCAR-5): > 100 µM (inactive) | GI50 (OVCAR-4): > 100 µM (inactive) | GI50 (NCI-H23): > 100 µM (inactive) | GI50 (NCI-H522): 2.77 µM (inactive) | GI50 (MCF7): > 100 µM (inactive) | GI50 (M14): > 100 µM (inactive) | GI50 (KM12): > 100 µM (inactive) | GI50 (T47D): > 100 µM (inactive) | GI50 (MOLT-4): > 100 µM (inactive) | GI50 (Malme-3M): 15.7 µM (inactive) | GI50 (HOP-62): > 100 µM (inactive) | GI50 (SK-MEL-28): > 100 µM (inactive) | GI50 (SK-MEL-2): > 100 µM (inactive) | GI50 (A498): > 100 µM (inactive) | GI50 (RPMI-8226): > 100 µM (inactive) | GI50 (MDA-MB-435): > 100 µM (inactive) | GI50 (UO-31): > 100 µM (inactive) | GI50 (K562): > 100 µM (inactive) | GI50 (HCT-116): > 100 µM (inactive) | GI50 (MDA-MB-231): > 100 µM (inactive) | GI50 (SF-295): > 100 µM (inactive) | GI50 (A549): > 100 µM (inactive) | GI50 (DU-145): > 100 µM (inactive) | GI50 (PC-3): > 100 µM (inactive) | GI50 (U-251): > 100 µM (inactive) | GI50 (SF-539): > 100 µM (inactive) | GI50 (SN12C): > 100 µM (inactive) | GI50 (UACC-62): > 100 µM (inactive) | GI50 (SF-268): > 100 µM (inactive) | GI50 (TK-10): > 100 µM (inactive) | GI50 (SK-OV-3): > 100 µM (inactive) | GI50 (SNB-19): > 100 µM (inactive) | GI50 (OVCAR-3): > 100 µM (inactive) | GI50 (SK-MEL-5): > 100 µM (inactive) | GI50 (HCT-15): > 100 µM | GI50 (MDA-N): > 100 µM (inactive)

NS(=O)(=O)c1ccc(/C=C/c2ccc(F)cc2)cc1
GI50 (COLO 205): 24.8 µM (inactive) | GI50 (HCC 2998): 51.8 µM (inactive) | GI50 (SW-620): 17.1 µM (inactive) | GI50 (786-0): 21.2 µM (inactive) | GI50 (NCI-H460): 23.5 µM (inactive) | GI50 (RXF 393): 15.6 µM (inactive) | GI50 (NCI/ADR-RES): 26.3 µM (inactive) | GI50 (OVCAR-5): > 100 µM (inactive) | GI50 (MCF7): 23.9 µM (inactive) | GI50 (M14): 79.4 µM (inactive) | GI50 (T47D): 14.9 µM (inactive) | GI50 (Malme-3M): 40.5 µM (inactive) | GI50 (HOP-62): 34 µM (inactive) | GI50 (SK-MEL-28): 47.4 µM (inactive) | GI50 (SK-MEL-2): 20.7 µM (inactive) | GI50 (A498): 29.4 µM (inactive) | GI50 (UO-31): 20.7 µM (inactive) | GI50 (SNB-75): 31.6 µM (inactive) | GI50 (HCT-116): 16.9 µM (inactive) | GI50 (MDA-MB-231): 9.53 µM (inactive) | GI50 (SF-295): 28.9 µM (inactive) | GI50 (DU-145): 50.1 µM (inactive) | GI50 (PC-3): 39 µM (inactive) | GI50 (SN12C): 25.8 µM (inactive) | GI50 (TK-10): 21.3 µM (inactive) | GI50 (UACC-257): > 100 µM (inactive) | GI50 (EKVX): 47.3 µM (inactive) | GI50 (SK-OV-3): 23.8 µM (inactive) | GI50 (SNB-19): 33.9 µM (inactive) | GI50 (OVCAR-3): 16.7 µM (inactive) | GI50 (MDA-N): 43.5 µM (inactive)
